Tests used:
Type in all cases: in vivo
[1] = tested on: palmer (palmer amaranth, palmer pigweed, Amaranthus palmeri); assay: Test A preemergence soil spray, visual injury rating 0-100; conditions: 10 days, 0 = no effect, 100 = complete control
How it was run: (§1)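 Preemergence directed soil spray or postemergence spray (2-10 cm, 1-2 leaf); loam/sand mix; compound in non-phytotoxic solvent + surfactant. Greenhouse, 10 d. Visual injury vs untreated, 0 = none, 100 = complete control.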

kochia (Bassia scoparia) [2] = assay: as above; conditions: 10 days, 0 = no effect, 100 = complete control
How it was run: as §1

corn (Zea mays) [3] = assay: as above; conditions: 10 days, 0 = no effect, 100 = complete control
How it was run: as §1

[4] = tested on: foxtail, giant (giant foxtail, Setaria faberi); assay: as above; conditions: 10 days, 0 = no effect, 100 = complete control
How it was run: as §1

[5] = tested on: oat, wild (wild oat, Avena fatua); assay: as above; conditions: 10 days, 0 = no effect, 100 = complete control
How it was run: as §1

soybean (Glycine max) [6] = assay: as above; conditions: 10 days, 0 = no effect, 100 = complete control
How it was run: as §1

[7] = tested on: ragweed (common ragweed, Ambrosia artemisiifolia); assay: as above; conditions: 10 days, 0 = no effect, 100 = complete control
How it was run: as §1

[8] = tested on: wheat (Triticum aestivum); assay: as above; conditions: 10 days, 0 = no effect, 100 = complete control
How it was run: as §1

[9] = tested on: barnyardgrass (Echinochloa crus-galli); assay: as above; conditions: 10 days, 0 = no effect, 100 = complete control
How it was run: as §1

[10] = tested on: blackgrass (Alopecurus myosuroides); assay: as above; conditions: 10 days, 0 = no effect, 100 = complete control
How it was run: as §1

[11] = tested on: ryegrass, Italian (italian ryegrass, Lolium multiflorum); assay: as above; conditions: 10 days, 0 = no effect, 100 = complete control
How it was run: as §1

[12] = tested on: ducksalad (Heteranthera limosa); assay: Test B flooded paddy test, visual plant response rating 0-100; conditions: 250 g ai/ha, Flood, applied to paddy water, evaluated after 13 days
How it was run: (§2)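 Visual scores versus untreated controls were recorded 13 days after treatment of greenhouse-held plants. At the 2-leaf stage, pots were flooded 3 cm above the soil surface and compounds added straight to the water.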

rice (Oryza sativa) = assay: as above; conditions: 250 g ai/ha, Flood, applied to paddy water, evaluated after 13 days
How it was run: as §2

[13] = tested on: barnyardgrass (Echinochloa crusgalli); assay: as above; conditions: 250 g ai/ha, Flood, applied to paddy water, evaluated after 13 days
How it was run: as §2

[14] = tested on: sedge, umbrella (small-flower umbrella sedge, Cyperus difformis); assay: as above; conditions: 250 g ai/ha, Flood, applied to paddy water, evaluated after 13 days
How it was run: as §2

[15] = tested on: palmer (palmer amaranth, palmer pigweed, Amaranthus palmeri); assay: Test A postemergence application, visual injury rating 0-100; conditions: Postemergence, 10 days, 0 is no effect, 100 is complete control
How it was run: as §1

kochia (Bassia scoparia) [16] = assay: as above; conditions: Postemergence, 10 days, 0 is no effect, 100 is complete control
How it was run: as §1

corn (Zea mays) [17] = assay: as above; conditions: Postemergence, 10 days, 0 is no effect, 100 is complete control
How it was run: as §1

[18] = tested on: foxtail, giant (giant foxtail, Setaria faberi); assay: as above; conditions: 10 days, 0 is no effect, 100 is complete control
How it was run: as §1

[19] = tested on: oat, wild (wild oat, Avena fatua); assay: as above; conditions: Postemergence, 10 days, 0 is no effect, 100 is complete control
How it was run: as §1

[20] = tested on: horseweed (Erigeron canadensis); assay: as above; conditions: Postemergence, 10 days, 0 is no effect, 100 is complete control
How it was run: as §1

soybean (Glycine max) [21] = assay: as above; conditions: Postemergence, 10 days, 0 is no effect, 100 is complete control
How it was run: as §1

[22] = tested on: ragweed (common ragweed, Ambrosia artemisiifolia); assay: as above; conditions: Postemergence, 10 days, 0 is no effect, 100 is complete control
How it was run: as §1

[23] = tested on: wheat (Triticum aestivum); assay: as above; conditions: Postemergence, 10 days, 0 is no effect, 100 is complete control
How it was run: as §1

[24] = tested on: barnyardgrass (Echinochloa crus-galli); assay: as above; conditions: Postemergence, 10 days, 0 is no effect, 100 is complete control
How it was run: as §1

[25] = tested on: galium (catchweed bedstraw, Galium aparine); assay: as above; conditions: Postemergence, 10 days, 0 is no effect, 100 is complete control
How it was run: as §1

[26] = tested on: blackgrass (Alopecurus myosuroides); assay: as above; conditions: Postemergence, 10 days, 0 is no effect, 100 is complete control
How it was run: as §1

[27] = tested on: ryegrass, Italian (italian ryegrass, Lolium multiflorum); assay: as above; conditions: Postemergence, 10 days, 0 is no effect, 100 is complete control
How it was run: as §1

## CC1(C(=O)NC2C=CC(C(=O)NS(C)(=O)=O)C2)CN(c2cc(F)cc(F)c2)C(=O)O1 (stereo not shown) [Compound 30]
[1]; 125 g ai/ha
  Amaranth, Palmer plant response rating (0 to 100 scale): 80
[1]; 500 g ai/ha
  Amaranth, Palmer plant response rating (0 to 100 scale): 100
Kochia (Bassia scoparia) [2]; 125 g ai/ha
  Kochia plant response rating (0 to 100 scale): 90
Kochia (Bassia scoparia) [2]; 500 g ai/ha
  Kochia plant response rating (0 to 100 scale): 90
Corn (Zea mays) [3]; 125 g ai/ha
  Corn plant response rating (0 to 100 scale): 70
Corn (Zea mays) [3]; 500 g ai/ha
  Corn plant response rating (0 to 100 scale): 80
[4]; 125 g ai/ha
  Foxtail, Giant plant response rating (0 to 100 scale): 30
[4]; 500 g ai/ha
  Foxtail, Giant plant response rating (0 to 100 scale): 100
[5]; 125 g ai/ha
  Oat, Wild plant response rating (0 to 100 scale): 60
[5]; 500 g ai/ha
  Oat, Wild plant response rating (0 to 100 scale): 90
Soybean (Glycine max) [6]; 125 g ai/ha
  Soybean plant response rating (0 to 100 scale): 0
Soybean (Glycine max) [6]; 500 g ai/ha
  Soybean plant response rating (0 to 100 scale): 80
[7]; 125 g ai/ha
  Ragweed plant response rating (0 to 100 scale): 40
[7]; 500 g ai/ha
  Ragweed plant response rating (0 to 100 scale): 60
[8]; 125 g ai/ha
  Wheat plant response rating (0 to 100 scale): 90
[8]; 500 g ai/ha
  Wheat plant response rating (0 to 100 scale): 100
[9]; 125 g ai/ha
  Barnyardgrass plant response rating (0 to 100 scale): 60
[9]; 500 g ai/ha
  Barnyardgrass plant response rating (0 to 100 scale): 100
[10]; 125 g ai/ha
  Blackgrass plant response rating (0 to 100 scale): 80
[10]; 500 g ai/ha
  Blackgrass plant response rating (0 to 100 scale): 90
[11]; 125 g ai/ha
  Ryegrass, Italian plant response rating (0 to 100 scale): 70
[11]; 500 g ai/ha
  Ryegrass, Italian plant response rating (0 to 100 scale): 90
[12]
  Plant response rating, Ducksalad (0 to 100 scale, 0 is no effect and 100 is complete control): 65
Rice (Oryza sativa)
  Plant response rating, Rice (0 to 100 scale, 0 is no effect and 100 is complete control): 0
[13]
  Plant response rating, Barnyardgrass (0 to 100 scale, 0 is no effect and 100 is complete control): 15
[14]
  Plant response rating, Sedge, Umbrella (0 to 100 scale, 0 is no effect and 100 is complete control): 95
[15]; 125 g ai/ha
  Amaranth, Palmer / Pigweed, Palmer plant response rating (0 to 100 scale): 90
[15]; 500 g ai/ha
  Amaranth, Palmer / Pigweed, Palmer plant response rating (0 to 100 scale): 90
Kochia (Bassia scoparia) [16]; 125 g ai/ha
  Kochia plant response rating (0 to 100 scale): 70
Kochia (Bassia scoparia) [16]; 500 g ai/ha
  Kochia plant response rating (0 to 100 scale): 80
Corn (Zea mays) [17]; 125 g ai/ha
  Corn plant response rating (0 to 100 scale): 60
Corn (Zea mays) [17]; 500 g ai/ha
  Corn plant response rating (0 to 100 scale): 90
[18]; 125 g ai/ha
  Foxtail, Giant plant response rating (0 to 100 scale): 90
[18]; 500 g ai/ha
  Foxtail, Giant plant response rating (0 to 100 scale): 90
[19]; 125 g ai/ha
  Oat, Wild plant response rating (0 to 100 scale): 100
[19]; 500 g ai/ha
  Oat, Wild plant response rating (0 to 100 scale): 100
[20]; 125 g ai/ha
  Horseweed plant response rating (0 to 100 scale): 30
[20]; 500 g ai/ha
  Horseweed plant response rating (0 to 100 scale): 80
Soybean (Glycine max) [21]; 125 g ai/ha
  Soybean plant response rating (0 to 100 scale): 60
Soybean (Glycine max) [21]; 500 g ai/ha
  Soybean plant response rating (0 to 100 scale): 70
[22]; 125 g ai/ha
  Ragweed plant response rating (0 to 100 scale): 20
[22]; 500 g ai/ha
  Ragweed plant response rating (0 to 100 scale): 80
[23]; 125 g ai/ha
  Wheat plant response rating (0 to 100 scale): 80
[23]; 500 g ai/ha
  Wheat plant response rating (0 to 100 scale): 80
[24]; 125 g ai/ha
  Barnyardgrass plant response rating (0 to 100 scale): 100
[24]; 500 g ai/ha
  Barnyardgrass plant response rating (0 to 100 scale): 100
[25]; 125 g ai/ha
  Galium plant response rating (0 to 100 scale): 80
[25]; 500 g ai/ha
  Galium plant response rating (0 to 100 scale): 80
[26]; 125 g ai/ha
  Blackgrass plant response rating (0 to 100 scale): 70
[26]; 500 g ai/ha
  Blackgrass plant response rating (0 to 100 scale): 100
[27]; 125 g ai/ha
  Ryegrass, Italian plant response rating (0 to 100 scale): 80
[27]; 500 g ai/ha
  Ryegrass, Italian plant response rating (0 to 100 scale): 100

— patent US20260285850A1, “SUBSTITUTED OXAZOLIDINONES AND IMIDAZOLINONES AS HERBICIDES” (FMC CORPORATION, priority 2023, published 2026)
